Measurements taken from patent US20100267561A1, “HERBICIDAL PYRIDAZINONE DERIVATIVES” (priority 2007, published 2010).

Assays:
Assay type in all cases: in vivo
[1] = tested on: Italian ryegrass (Lolium multiflorum); assay: Test B pre-/postemergence plant response
How it was run: (§1)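 Seeds were sown and sprayed preemergence, while plants at 2 to 18 cm (1- to 4-leaf stage) got postemergence sprays. Compounds were formulated in a non-phytotoxic solvent mixture with surfactant. After 13 to 15 days in a greenhouse, injury was rated visually against untreated controls, 0 (no effect) to 100 (complete control).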

[2] = tested on: blackgrass (Alopecurus myosuroides); assay: Test B pre-/postemergence plant response
How it was run: as §1

[3] = tested on: catchweed bedstraw (Galium aparine); assay: Test B pre-/postemergence plant response; conditions: Preemergence, scale 0 to 100
How it was run: as §1

[4] = tested on: common (oilseed) sunflower (Helianthus annuus); assay: Test B pre-/postemergence plant response; conditions: Preemergence
How it was run: as §1

[5] = tested on: common ragweed (Ambrosia elation); assay: Test B pre-/postemergence plant response
How it was run: as §1

[6] = tested on: downy bromegrass (Bromus tectorum); assay: Test B pre-/postemergence plant response
How it was run: as §1

[7] = tested on: eastern black (E.B.) nightshade (Solanum ptycanthum); assay: Test B pre-/postemergence plant response; conditions: Preemergence
How it was run: as §1

[8] = tested on: johnsongrass (Sorghum halepense); assay: Test B pre-/postemergence plant response
How it was run: as §1

[9] = tested on: large crabgrass (Digitaria sanguinalis); assay: Test B pre-/postemergence plant response
How it was run: as §1

[10] = tested on: morningglory (Ipomoea coccinea); assay: Test B pre-/postemergence plant response
How it was run: as §1

[11] = tested on: pigweed (Amaranthus retroflexus); assay: Test B pre-/postemergence plant response
How it was run: as §1

[12] = tested on: wild oat (Avena fatua); assay: Test B pre-/postemergence plant response
How it was run: as §1

[13] = tested on: barnyardgrass (Echinochloa crus-galli); assay: Test B flooded paddy test plant response
How it was run: (§2)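 Paddy-water application to 2-leaf plants in pots held under 3 cm of flooding; response is a 0–100 visual control rating against controls after 13 to 15 days, and a dash marks a missing result.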

[14] = tested on: rice (Oryza sativa); assay: Test B flooded paddy test plant response
How it was run: as §2

[15] = Postemergence, 31 g ai/ha, scale 0 to 100, 0 no effect, 100 complete control
[16] = Postemergence, 62 g ai/ha, scale 0 to 100
[17] = Postemergence, 125 g ai/ha, scale 0 to 100
[18] = Postemergence, 250 g ai/ha, scale 0 to 100
[19] = Preemergence, 31 g ai/ha, 0 to 100 scale, 0 no effect, 100 complete control
[20] = Preemergence, 62 g ai/ha, scale 0 to 100
[21] = Preemergence, 125 g ai/ha, scale 0 to 100
[22] = Preemergence, 250 g ai/ha, scale 0 to 100
[23] = 31 g ai/ha, 0 to 100 scale, 0 no effect, 100 complete control
[24] = Flood (flooded paddy test), 62 g ai/ha, scale 0 to 100, 0 no effect, 100 complete control
[25] = Flood (flooded paddy test), 125 g ai/ha, scale 0 to 100, 0 no effect, 100 complete control
[26] = Flood (flooded paddy test), 250 g ai/ha, scale 0 to 100, 0 no effect, 100 complete control
[27] = Flood, 31 g ai/ha, scale 0 to 100

4-[3-(4-chlorophenyl)-5-methyl-1H-pyrazol-3-yl]-5-hydroxy-2-methyl-3(2H)-pyridazinone [Compound 3]
100: Plant response rating, Ryegrass, Italian [1, 16] | Plant response rating, Ryegrass, Italian [1, 17] | Plant response rating, Ryegrass, Italian [1, 18] | Plant response rating, Ryegrass, Italian [1, 20] | Plant response rating, Ryegrass, Italian [1, 21] | Plant response rating, Ryegrass, Italian [1, 22] | Blackgrass plant response rating ([2]; 250 g ai/ha, preemergence, 0-100 scale) | Plant response rating, Blackgrass [2, 15] | Plant response rating, Blackgrass [2, 16] | Plant response rating, Blackgrass [2, 17] | Plant response rating, Blackgrass [2, 18] | Plant response rating, Blackgrass [2, 20] | Plant response rating, Blackgrass [2, 21] | Plant response rating, Nightshade, E. B. ([7]; 62 g ai/ha, scale 0 to 100) | Plant response rating, Nightshade, E. B. ([7]; 125 g ai/ha, scale 0 to 100) | Plant response rating, Nightshade, E. B. ([7]; 250 g ai/ha, scale 0 to 100) | Plant response rating, Johnsongrass [8, 21] | Plant response rating, Johnsongrass [8, 22] | Plant response rating, Crabgrass, Large [9, 15] | Plant response rating, Crabgrass, Large [9, 16] | Plant response rating, Crabgrass, Large [9, 17] | Plant response rating, Crabgrass, Large [9, 18] | Plant response rating, Crabgrass, Large [9, 21] | Plant response rating, Crabgrass, Large [9, 22] | Plant response rating, Oat, Wild [12, 17] | Plant response rating, Oat, Wild [12, 18]
10: Plant response rating, Pigweed [11, 17]
98: Plant response rating, Ryegrass, Italian [1, 19] | Plant response rating, Bromegrass, Downy ([6]; Preemergence, 250 g ai/ha, scale 0 to 100 (0 no effect, 100 complete control))
60: Plant response rating, Bromegrass, Downy [6, 20] | Plant response rating, Oat, Wild [12, 19] | Plant response rating, Barnyardgrass [13, 24] | Plant response rating, Rice [14, 24]
25: Plant response rating, Pigweed [11, 18]
90: Plant response rating, Nightshade, E. B. [7, 23] | Plant response rating, Crabgrass, Large [9, 19] | Plant response rating, Crabgrass, Large [9, 20] | Plant response rating, Pigweed [11, 20] | Plant response rating, Pigweed [11, 21] | Plant response rating, Pigweed [11, 22] | Plant response rating, Oat, Wild [12, 15]
50: Plant response rating, Ragweed [5, 18] | Plant response rating, Bromegrass, Downy [6, 19]
5: Plant response rating, Bromegrass, Downy [6, 15] | Plant response rating, Bromegrass, Downy [6, 16] | Plant response rating, Bromegrass, Downy [6, 17] | Plant response rating, Bromegrass, Downy [6, 18]
80: Plant response rating, Blackgrass [2, 19] | Plant response rating, Johnsongrass [8, 16] | Plant response rating, Johnsongrass [8, 19] | Plant response rating, Oat, Wild [12, 21] | Plant response rating, Barnyardgrass [13, 26] | Plant response rating, Rice [14, 26]
20: Plant response rating, Rice [14, 27]
40: Plant response rating, Sunflower ([4]; 62 g ai/ha, scale 0 to 100)
85: Plant response rating, Galium ([3]; 62 g ai/ha) | Plant response rating, Galium ([3]; 125 g ai/ha) | Plant response rating, Galium ([3]; 250 g ai/ha)
70: Plant response rating, Oat, Wild [12, 20] | Plant response rating, Barnyardgrass [13, 25]
0: Plant response rating, Ragweed [5, 16] | Plant response rating, Ragweed [5, 17] | Plant response rating, Ragweed [5, 19] | Plant response rating, Ragweed [5, 21] | Plant response rating, Ragweed [5, 22] | Plant response rating, Johnsongrass [8, 15] | Plant response rating, Morningglory [10, 15] | Plant response rating, Morningglory [10, 16] | Plant response rating, Morningglory [10, 17] | Plant response rating, Morningglory [10, 18] | Plant response rating, Morningglory [10, 19] | Plant response rating, Morningglory [10, 20] | Plant response rating, Morningglory [10, 21] | Plant response rating, Morningglory [10, 22] | Plant response rating, Pigweed [11, 15] | Plant response rating, Pigweed [11, 16] | Plant response rating, Pigweed [11, 19] | Plant response rating, Barnyardgrass [13, 27]
95: Plant response rating, Ryegrass, Italian [1, 15] | Plant response rating, Bromegrass, Downy [6, 21] | Plant response rating, Johnsongrass [8, 20] | Plant response rating, Oat, Wild [12, 16] | Plant response rating, Oat, Wild [12, 22]
75: Plant response rating, Rice [14, 25]
30: Plant response rating, Sunflower [4, 23]
